The text below walks through data of publication PMC3433420 (PLoS ONE, 2012).

Read-outs that look alike come from different tables or passages of the source. Residues, ends and D or L forms follow the SMILES beside them.

The target of experiment [1] is T1, PLCG1-C SH2 domain (Homo sapiens, UniProt P19174).
T1 construct: The 6X His-tagged SH2 domain proteins used in the assay, PLCG1-C, SHC4, VAV2; thioredoxin; made in house; host or cells: E. coli BL21(DE3)pLysS
T1 sequence (P19174 668-756 limits assumed): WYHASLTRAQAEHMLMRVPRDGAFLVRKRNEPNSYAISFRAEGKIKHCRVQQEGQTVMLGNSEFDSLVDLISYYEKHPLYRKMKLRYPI
Briefly: biochemical. In kind it is binding. The conditions noted are these: high-confidence ErbB interactions.

Experiment [2] concerns the target T2, RASA1-N SH2 domain (Homo sapiens, UniProt P20936).
T2 sequence (P20936 181-272 limits assumed): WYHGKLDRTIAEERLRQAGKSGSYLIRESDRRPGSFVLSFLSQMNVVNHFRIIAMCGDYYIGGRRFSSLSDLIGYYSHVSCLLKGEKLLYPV
Briefly: FP saturation binding assay.

Experiment [3] addresses T3, PLCG1-NC tandem SH2 domains (Homo sapiens, UniProt P19174).
T3 construct: the tandem protein was included in our analysis with all internal amino acids linking the domains; 6X His; thioredoxin; made in house; host or cells: E. coli BL21(DE3)pLysS
T3 sequence (P19174 550-756 limits assumed): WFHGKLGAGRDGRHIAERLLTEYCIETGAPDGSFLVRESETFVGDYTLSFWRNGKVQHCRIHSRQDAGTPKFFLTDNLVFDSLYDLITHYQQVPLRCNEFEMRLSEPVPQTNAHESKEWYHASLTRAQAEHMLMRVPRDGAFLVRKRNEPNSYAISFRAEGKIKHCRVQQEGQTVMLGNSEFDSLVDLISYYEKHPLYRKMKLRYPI
The experiment can be described thus: FP saturation binding assay. Conditions: protein PLCG1-NC; FP, high-confidence ErbB interactions; mean of replicate hits. On the procedure:
(See Figure 1A) Rhodamine-labeled peptides were dissolved in assay buffer (20 mM HEPES, 100 mM KCl, 0.1% Tween-20, 5 mM DTT, pH 7.8), diluted to a concentration of 20 nM, and plated into black 384-well plates (Corning, Corning, NY) at 5 µL/well using a Perkin Elmer EP3 pipetting workstation (V&P Scientific, Inc., San Diego, CA). SH2, PTB, and thioredoxin control proteins were plated into the first column of 2 mL 96-well plates (Corning) at a concentration of 20 µM and serially diluted 1∶2 into freezing buffer (300 mM NaCl, 50 mM Na2PO4, pH 8, 20% glycerol v/v) eleven times using a Tecan Freedom EVO 100 workstation (Tecan, Männedorf, Switzerland). For the interaction assay, 5 µL of each of the twelve protein concentrations was added to the peptide-containing 384-well plates via the EP3 resulting in a protein dilution range of 0.002–10 µM and a final volume of 10 µL; peptide concentration was fixed at 10 nM. […] Experimental values were output as millipolarization (mP) units and imported into MATLAB (The MathWorks, Inc., Natick, MA) in which equation (1) was used to determine dissociation constants (KDs) for each protein/peptide pairing by least squares nonlinear regression. [drawing 1] (1)
FP was described by the following equation: P=Iparallel-IperpendicularIparallel+Iperpendicular, where “P” denotes polarization, and “I” denotes the fluorescent intensity relative to the plane of incident light. Experimental values were output as millipolarization (mP) units and imported into MATLAB where the following equation was used to determine dissociation constants (KDs) for each protein/peptide pairing by least squares nonlinear regression:
Pobs=Pmax∙ProteinKD+Protein [picture] (1)
Peptides were initially tested for systematic plate effects across protein dilutions and nonspecific binding to thioredoxin by linear regression analysis and any effects were regressed out. The median baseline control polarization value for each plate was then subtracted from each data point to make each binding curve intersect at zero. Plates with excessive variation in baseline control polarizations on both a global and run-specific manner (Dixon’s Q test, p < 0.05) were excluded from further analysis. Outliers in each binding curve were identified and removed using an iterative procedure as follows. The residuals for each fit were used to calculate a global standard deviation of the residuals (GSDR) for each concentration of SH2 domain over all interactions, and individual data points with residuals < or > two GSDR from the global mean residual were flagged as outliers. The outlier with the largest residual from each interaction was removed and nonlinear regression was again performed. This procedure was repeated if additional outliers were identified for an interaction, discarding the interaction if the number of outliers exceeded three. […] In order to further control our false positive rate against hidden confounding variables producing binding artifacts, we sought to determine whether there was a significant relationship between the strength of an interaction and its technical replication rate at our stringent significance and filtering thresholds. We performed logistic regression on the proportion of successful replicates for each interaction query against KD for all interactions (Figure S15A). […] “High-confidence” FP interactions are defined as those having 1 - P(Observed Replication Rate | Expectation) > 0.5 and that have replicated at least twice across independent FP runs. […] The compiled FP data were organized into heatmaps generated by MATLAB and relative binding strength (µM). Peptides without at least one positive hit were classified as “no interaction” if there was no homologous sequence (i.e. identical at the +1 to +4 positions relative to the phosphotyrosine) that produced a positive interaction within the ErbB receptor family.

Experiment [4] addresses GRB7 SH2 domain (Homo sapiens, UniProt Q14451). On the set-up: 6X His; thioredoxin; made in house; host or cells: E. coli BL21(DE3)pLysS. Conditions: Protein GRB7; most recent PM interactions; ref Jones et al. 2006 / Kaushansky et al. Chem and Biol 2008; cited from earlier work.
In experiment [5] the target is SH2 and PTB domains. Conditions: most recent PM interactions, ref Jones et al. 2006 / Kaushansky et al. Chem and Biol 2008, cited from earlier work. The text has this:
Supplement pone.0044471.s022.xlsx, sheet "Most recent PM interactions" | column: Kd || Supplement pone.0044471.s022.xlsx, sheet "All original PM interactions" | column: Kd

Sequence of GRB7 SH2 domain (Q14451 431-527 limits assumed): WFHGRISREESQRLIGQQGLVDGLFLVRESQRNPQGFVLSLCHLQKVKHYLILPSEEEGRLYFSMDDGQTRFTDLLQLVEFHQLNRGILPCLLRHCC

Regarding `CC(C)C[C@H](NC(=O)[C@H](Cc1ccc(OP(=O)(O)O)cc1)NC(=O)[C@H](CCC(=O)O)NC(=O)[C@H](C)NC(=O)[C@H](CC(N)=O)NC(=O)[C@@H](N)CCC(=O)O)C(=O)N[C@@H](CCCNC(=N)N)C(=O)N[C@H](C(=O)N[C@@H](C)C(=O)N1CCC[C@H]1C(=O)N[C@@H](CCC(N)=O)C(=O)N[C@@H](CO)C(=O)N[C@@H](CC(=O)O)C(=O)O)C(C)C` [ErbB1 1197 13-mer] (HELM PEPTIDE1{E.N.A.E.[O=C([C@H](Cc1ccc(OP(=O)(O)O)cc1)N[*:1])[*:2]].L.R.V.A.P.Q.S.D}$$$$V2.0), in experiment [1] (Protein PLCG1-C, FP saturation binding, mean over replicate hits), the equilibrium dissociation constant (Kd) (commonly the equilibrium constant for the complex coming apart) was 5.67 µM.

Turning to `CC(C)C[C@H](NC(=O)[C@H](Cc1ccc(OP(=O)(O)O)cc1)NC(=O)[C@H](CCC(=O)O)NC(=O)[C@H](CCC(N)=O)NC(=O)[C@H](CCCCN)NC(=O)[C@@H]1CCCN1)C(=O)N[C@@H](CC(N)=O)C(=O)N1CCC[C@H]1C(=O)N[C@H](C(=O)N[C@@H](CCC(=O)O)C(=O)N[C@@H](CCC(=O)O)C(=O)N[C@@H](CC(N)=O)C(=O)N[C@@H](CC(=O)O)C(=O)O)C(C)C` [ErbB4 1162 13-mer] (HELM PEPTIDE1{P.K.Q.E.[O=C([C@H](Cc1ccc(OP(=O)(O)O)cc1)N[*:1])[*:2]].L.N.P.V.E.E.N.D}$$$$V2.0), the equilibrium dissociation constant (Kd) in experiment [2] was 2.9 µM; in experiment [3] it was 5.31 µM.

The compound `CC(C)C[C@H](NC(=O)[C@H](CO)NC(=O)[C@H](Cc1ccccc1)NC(=O)[C@H](CCC(=O)O)NC(=O)[C@H](CO)NC(=O)[C@H](CC(C)C)NC(=O)[C@H](Cc1ccc(OP(=O)(O)O)cc1)NC(=O)[C@H](CCC(=O)O)NC(=O)[C@@H]1CCCN1C(=O)[C@H](CC(N)=O)NC(=O)[C@@H](N)CCC(=O)O)C(=O)N[C@@H](CCCCN)C(=O)N[C@@H](CC(=O)O)C(=O)O` [ErbB4 1284 13-mer] (HELM PEPTIDE1{E.N.P.E.[O=C([C@H](Cc1ccc(OP(=O)(O)O)cc1)N[*:1])[*:2]].L.S.E.F.S.L.K.D}$$$$V2.0) displayed a Kd in experiment [1] (protein PLCG1-C, mean of replicate hits) of 3.68 µM.

Consider AFSPAFDNLYpYWDQDPPE [ErbB2 1222], for which the Kd in experiment [4] is 0.25 µM; in experiment [5] (Protein ABL1), 1.84 µM; in experiment [5] (Protein ABL2) it was 0.19 µM; in experiment [5] (Protein BLK) it was 0.05 µM; in experiment [5] (Protein CRKL), 1.46 µM; in experiment [5] (Protein GRB10), 0.49 µM. In addition, the dissociation constant (Kd) in experiment [5] (Protein ITK) was 0.22 µM; in experiment [5] (Protein PIK3R1-NC), 1.84 µM; in experiment [5] (Protein PIK3R3-NC) it was 0.78 µM; in experiment [5] (Protein PLCG1-NC), 1.79 µM; in experiment [5] (Protein PLCG2-N) it was 0.6 µM; in experiment [5] (Protein PLCG2-NC), 0.26 µM. Moreover, the dissociation constant Kd in experiment [5] (Protein RASA1-N) is 0.5 µM; in experiment [5] (Protein RASA1-NC), 0.22 µM; in experiment [5] (Protein SH2B2), 1.47 µM; in experiment [5] (Protein SH2D3A), 1.6 µM; in experiment [5] (Protein SH2D3C), 0.71 µM; in experiment [5] (Protein SHC1-PTB) it was 0.61 µM. In addition, the Kd in experiment [5] (Protein SHC2-PTB) is 0.46 µM; in experiment [5] (Protein SHC3), 1.71 µM; in experiment [5] (Protein SHF), 0.59 µM; in experiment [5] (Protein SRC) it was 0.2 µM; in experiment [5] (Protein SYK-C), 1.97 µM; in experiment [5] (Protein SYK-N) it was 0.2 µM. In addition, the Kd in experiment [5] (Protein SYK-NC) was 0.46 µM; in experiment [5] (Protein TEC) it was 1.61 µM; in experiment [5] (Protein TENC1) it was 0.84 µM; in experiment [5] (Protein TNS3), 1.29 µM; in experiment [5] (Protein VAV3), 1.12 µM; in experiment [5] (Protein YES1), 0.22 µM.
